Results published in publication PMC10175918 (Communications Biology, 2023).
Where two headings read alike, the source gives them in different places.

Experiments:
Assay in all cases: TGFα-shedding assay-based GPCR screening with chimeric Gα subunit proteins
Format in all cases: cell-based
348 GPCRs [1] = biological target: T1, 348 GPCRs (Homo sapiens, UniProt P18089)
T1 construct: expressed in transfected cells; host or cells: HEK293A
T1 sequence (P18089 1-450): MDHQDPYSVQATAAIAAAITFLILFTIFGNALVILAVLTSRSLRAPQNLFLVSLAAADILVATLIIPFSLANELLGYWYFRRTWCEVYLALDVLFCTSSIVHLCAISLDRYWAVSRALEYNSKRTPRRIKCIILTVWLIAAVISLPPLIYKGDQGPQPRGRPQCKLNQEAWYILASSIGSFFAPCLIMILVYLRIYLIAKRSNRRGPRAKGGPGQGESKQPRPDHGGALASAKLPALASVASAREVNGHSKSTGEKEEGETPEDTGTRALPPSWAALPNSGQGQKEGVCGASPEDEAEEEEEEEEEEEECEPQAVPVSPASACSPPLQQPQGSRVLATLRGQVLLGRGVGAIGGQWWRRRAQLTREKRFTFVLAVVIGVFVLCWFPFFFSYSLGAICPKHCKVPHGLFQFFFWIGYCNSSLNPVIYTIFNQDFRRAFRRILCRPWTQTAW

348 GPCRs [2] = biological target: T2, 348 GPCRs (Homo sapiens, UniProt O14626); details: 10µM, Favipiravir 100μM
T2 construct: expressed in transfected cells; host or cells: HEK293A
T2 sequence (O14626 1-319): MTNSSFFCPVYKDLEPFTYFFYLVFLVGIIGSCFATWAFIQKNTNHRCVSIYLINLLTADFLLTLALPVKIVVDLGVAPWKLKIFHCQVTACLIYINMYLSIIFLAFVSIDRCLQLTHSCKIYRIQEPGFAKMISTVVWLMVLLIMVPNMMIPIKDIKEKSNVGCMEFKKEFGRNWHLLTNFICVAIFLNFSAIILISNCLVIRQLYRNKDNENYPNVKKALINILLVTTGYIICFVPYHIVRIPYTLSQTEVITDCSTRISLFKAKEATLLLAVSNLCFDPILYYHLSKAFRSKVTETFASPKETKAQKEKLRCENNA

348 GPCRs [3] = biological target: T3, 348 GPCRs (Homo sapiens, UniProt Q01718)
T3 construct: expressed in transfected cells; host or cells: HEK293A
T3 sequence (Q01718 whole entry): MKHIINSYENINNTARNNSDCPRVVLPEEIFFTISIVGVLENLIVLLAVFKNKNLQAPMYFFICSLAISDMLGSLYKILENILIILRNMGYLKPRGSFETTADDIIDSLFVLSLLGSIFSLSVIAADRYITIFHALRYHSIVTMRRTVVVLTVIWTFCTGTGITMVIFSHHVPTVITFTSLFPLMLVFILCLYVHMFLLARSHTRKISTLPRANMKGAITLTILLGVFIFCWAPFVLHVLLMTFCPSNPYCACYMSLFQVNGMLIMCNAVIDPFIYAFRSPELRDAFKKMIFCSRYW

348 GPCRs [4] = biological target: T4, 348 GPCRs (Homo sapiens, UniProt Q5T601)
T4 construct: expressed in transfected cells; host or cells: HEK293A
T4 sequence (Q5T601 20-910): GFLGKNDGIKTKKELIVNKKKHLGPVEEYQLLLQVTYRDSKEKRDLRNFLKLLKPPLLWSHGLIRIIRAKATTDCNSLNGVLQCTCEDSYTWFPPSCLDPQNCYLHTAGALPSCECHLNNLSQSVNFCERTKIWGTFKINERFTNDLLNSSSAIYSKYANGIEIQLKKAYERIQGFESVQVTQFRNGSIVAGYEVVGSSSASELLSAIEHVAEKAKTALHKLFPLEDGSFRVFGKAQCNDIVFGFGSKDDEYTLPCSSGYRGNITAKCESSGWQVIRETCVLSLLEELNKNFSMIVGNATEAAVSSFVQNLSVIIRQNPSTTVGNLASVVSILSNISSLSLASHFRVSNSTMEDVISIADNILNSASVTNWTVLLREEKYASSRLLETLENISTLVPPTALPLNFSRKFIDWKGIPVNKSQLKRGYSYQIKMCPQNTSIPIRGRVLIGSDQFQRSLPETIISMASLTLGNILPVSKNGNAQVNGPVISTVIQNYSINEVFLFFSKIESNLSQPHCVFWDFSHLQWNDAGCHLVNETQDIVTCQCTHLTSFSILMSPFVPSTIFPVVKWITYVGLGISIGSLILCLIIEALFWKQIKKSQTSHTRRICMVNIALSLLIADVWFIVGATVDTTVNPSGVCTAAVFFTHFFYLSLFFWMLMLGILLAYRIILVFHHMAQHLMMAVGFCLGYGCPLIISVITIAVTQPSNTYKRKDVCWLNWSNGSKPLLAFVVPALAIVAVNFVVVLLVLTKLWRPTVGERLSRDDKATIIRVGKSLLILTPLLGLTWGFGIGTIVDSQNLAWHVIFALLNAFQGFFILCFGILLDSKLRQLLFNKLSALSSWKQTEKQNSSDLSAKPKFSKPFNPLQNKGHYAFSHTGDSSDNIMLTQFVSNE

348 GPCRs [5] = biological target: T5, 348 GPCRs (Homo sapiens, UniProt Q96G91)
T5 construct: expressed in transfected cells; host or cells: HEK293A
T5 sequence (Q96G91 1-374): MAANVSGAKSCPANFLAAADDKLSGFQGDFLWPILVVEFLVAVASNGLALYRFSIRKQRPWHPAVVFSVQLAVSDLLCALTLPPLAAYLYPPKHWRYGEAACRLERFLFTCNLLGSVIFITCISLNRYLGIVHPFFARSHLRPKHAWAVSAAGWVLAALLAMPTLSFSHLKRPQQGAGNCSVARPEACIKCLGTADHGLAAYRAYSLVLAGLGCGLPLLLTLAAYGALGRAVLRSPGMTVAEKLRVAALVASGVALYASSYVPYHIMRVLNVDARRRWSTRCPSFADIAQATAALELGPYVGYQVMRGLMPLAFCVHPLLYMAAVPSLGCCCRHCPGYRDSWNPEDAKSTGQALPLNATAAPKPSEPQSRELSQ

348 GPCRs [6] = biological target: T6, 348 GPCRs (Homo sapiens, UniProt P49682)
T6 construct: expressed in transfected cells; host or cells: HEK293A
T6 sequence (P49682 1-368): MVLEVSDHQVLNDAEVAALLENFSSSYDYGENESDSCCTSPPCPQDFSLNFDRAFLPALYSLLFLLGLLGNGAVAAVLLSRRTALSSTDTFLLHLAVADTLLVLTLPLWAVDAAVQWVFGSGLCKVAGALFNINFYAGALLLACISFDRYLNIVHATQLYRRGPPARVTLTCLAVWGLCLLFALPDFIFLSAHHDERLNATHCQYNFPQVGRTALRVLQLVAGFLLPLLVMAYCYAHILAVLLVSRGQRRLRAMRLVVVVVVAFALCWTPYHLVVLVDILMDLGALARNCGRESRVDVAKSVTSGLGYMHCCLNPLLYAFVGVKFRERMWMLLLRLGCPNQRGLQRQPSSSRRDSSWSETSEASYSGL

348 GPCRs [7] = biological target: 348 GPCRs (Homo sapiens, UniProt P21554); details: read-out: % GPCR activation compared to TPA, CB1 (cannabinoid receptor 1); 10µM, Favipiravir 100μM
Chain of 348 GPCRs (Homo sapiens, UniProt P21554) (P21554 whole entry): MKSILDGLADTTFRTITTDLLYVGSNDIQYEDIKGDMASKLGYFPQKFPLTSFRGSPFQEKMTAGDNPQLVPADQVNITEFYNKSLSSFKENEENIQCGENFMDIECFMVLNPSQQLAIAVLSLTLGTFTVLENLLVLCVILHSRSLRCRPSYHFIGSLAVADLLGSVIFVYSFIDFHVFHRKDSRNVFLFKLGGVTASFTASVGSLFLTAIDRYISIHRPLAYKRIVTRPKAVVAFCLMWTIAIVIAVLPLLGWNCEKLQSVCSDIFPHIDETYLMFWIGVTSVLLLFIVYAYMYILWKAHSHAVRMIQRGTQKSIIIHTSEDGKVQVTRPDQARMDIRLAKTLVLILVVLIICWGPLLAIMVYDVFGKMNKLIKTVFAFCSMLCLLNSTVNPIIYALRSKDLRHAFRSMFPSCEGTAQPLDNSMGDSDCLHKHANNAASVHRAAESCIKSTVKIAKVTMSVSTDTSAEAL

[8] = GPCR α2B (adrenoceptor alpha 2B), read-out: % GPCR activation compared to TPA
[9] = GPR171 (G Protein-Coupled Receptor 171), read-out: % GPCR activation compared to TPA
[10] = GPCR MC2R (melanocortin 2 receptor), read-out: % GPCR activation compared to TPA
[11] = GPCR GPR110 (G-protein-coupled receptor 110 (ADGRF1)), read-out: % GPCR activation compared to TPA
[12] = GPCR P2Y11 (purinergic receptor P2Y, G-protein coupled, 11), read-out: % GPCR activation compared to TPA
[13] = GPCR CXCR3 (C-X-C motif chemokine receptor 3), read-out: % GPCR activation compared to TPA
[14] = read-out: % GPCR activation compared to TPA, GPCR α2B (adrenoceptor alpha 2B)
[15] = read-out: % GPCR activation compared to TPA, GPR171 (G Protein-Coupled Receptor 171)
[16] = read-out: % GPCR activation compared to TPA, GPCR MC2R (melanocortin 2 receptor)
[17] = read-out: % GPCR activation compared to TPA, GPCR GPR110 (G-protein-coupled receptor 110 (ADGRF1))
[18] = read-out: % GPCR activation compared to TPA, GPCR P2Y11 (purinergic receptor P2Y, G-protein coupled, 11)
[19] = read-out: % GPCR activation compared to TPA, GPCR CXCR3 (C-X-C motif chemokine receptor 3)

Row | activation at 10 µM (348 GPCRs [1]; [8]) | activation at 10 µM (348 GPCRs [2]; [9]) | activation at 10 µM (348 GPCRs [3]; [10]) | activation at 10 µM (348 GPCRs [4]; [11]) | activation at 10 µM (348 GPCRs [5]; [12]) | activation at 10 µM (348 GPCRs [6]; [13]) | activation at 100 µM (348 GPCRs [7]) | activation at 100 µM (348 GPCRs [1]; GPCR α2B (adrenoceptor alpha 2B), 100μM, read-out: % GPCR activation compared to TPA) | activation at 100 µM (348 GPCRs [3]; GPCR MC2R (melanocortin 2 receptor), 100μM, read-out: % GPCR activation compared to TPA) | activation at 100 µM (348 GPCRs [4]; GPCR GPR110 (G-protein-coupled receptor 110 (ADGRF1)), 100μM, read-out: % GPCR activation compared to TPA) | activation at 100 µM (348 GPCRs [5]; GPCR P2Y11 (purinergic receptor P2Y, G-protein coupled, 11), 100μM, read-out: % GPCR activation compared to TPA) | activation at 100 µM (348 GPCRs [6]; GPCR CXCR3 (C-X-C motif chemokine receptor 3), 100μM, read-out: % GPCR activation compared to TPA) | Compound | activation at 10 µM (348 GPCRs [1]; [14]) | activation at 10 µM (348 GPCRs [2]; [15]) | activation at 10 µM (348 GPCRs [3]; [16]) | activation at 10 µM (348 GPCRs [4]; [17]) | activation at 10 µM (348 GPCRs [5]; [18]) | activation at 10 µM (348 GPCRs [6]; [19])
1 | -2.28% | -1.42% | -0.688% | -1.67% | -16.3% | -3.08% | 0.0409% | – | – | – | – | – | N#C[C@@]1(c2ccc3c(N)ncnn23)O[C@H](CO)[C@@H](O)[C@H]1O [GS441524] | – | – | – | – | – | –
2 | -2.53% | -2.4% | -0.524% | -0.00488% | -21.8% | -2.3% | -1.3% | – | – | – | – | – | CC(C)C(=O)OC[C@H]1O[C@@H](n2ccc(NO)nc2=O)[C@H](O)[C@@H]1O [molnupiravir] | – | – | – | – | – | –

More lines, now with the values behind:

Row | Compound | activation at 10 µM (348 GPCRs [1]; [8]) | activation at 10 µM (348 GPCRs [2]; [9]) | activation at 10 µM (348 GPCRs [3]; [10]) | activation at 10 µM (348 GPCRs [4]; [11]) | activation at 10 µM (348 GPCRs [5]; [12]) | activation at 10 µM (348 GPCRs [6]; [13]) | activation at 100 µM (348 GPCRs [7]) | activation at 100 µM (348 GPCRs [1]; GPCR α2B (adrenoceptor alpha 2B), 100μM, read-out: % GPCR activation compared to TPA) | activation at 100 µM (348 GPCRs [3]; GPCR MC2R (melanocortin 2 receptor), 100μM, read-out: % GPCR activation compared to TPA) | activation at 100 µM (348 GPCRs [4]; GPCR GPR110 (G-protein-coupled receptor 110 (ADGRF1)), 100μM, read-out: % GPCR activation compared to TPA) | activation at 100 µM (348 GPCRs [5]; GPCR P2Y11 (purinergic receptor P2Y, G-protein coupled, 11), 100μM, read-out: % GPCR activation compared to TPA) | activation at 100 µM (348 GPCRs [6]; GPCR CXCR3 (C-X-C motif chemokine receptor 3), 100μM, read-out: % GPCR activation compared to TPA) | activation at 10 µM (348 GPCRs [1]; [14]) | activation at 10 µM (348 GPCRs [2]; [15]) | activation at 10 µM (348 GPCRs [3]; [16]) | activation at 10 µM (348 GPCRs [4]; [17]) | activation at 10 µM (348 GPCRs [5]; [18]) | activation at 10 µM (348 GPCRs [6]; [19])
3 | NC(=O)c1nc(F)cnc1O [favipiravir, 6-fluoro-3-hydroxy-2-pyrazinecarboxamide] | – | -0.909% | – | – | – | – | 1.89% | -4.03% | -0.849% | -3.88% | -11.1% | -0.62% | – | – | – | – | – | –
4 | CCC(CC)COC(=O)[C@H](C)N[P@](=O)(OC[C@H]1O[C@@](C#N)(c2ccc3c(N)ncnn23)[C@H](O)[C@@H]1O)Oc1ccccc1 [remdesivir] | – | – | – | – | – | – | -4.06% | – | – | – | – | – | 5.93% | 2.61% | -1.06% | -1.5% | -12.5% | -0.708%
5 | CC(C)OC(=O)[C@H](C)N[P@](=O)(OC[C@H]1O[C@@H](n2ccc(=O)[nH]c2=O)[C@](C)(F)[C@@H]1O)Oc1ccccc1 [sofosbuvir] | – | – | – | – | – | – | -1.13% | – | – | – | – | – | 0.619% | -0.832% | -3.14% | 0.252% | -20.5% | -2.03%
